Laboratory results from ChEMBL document CHEMBL3393043, “Computer-aided identification of novel anticancer compounds with a possible dual HER1/HER2 inhibition mechanism” (Bioorg Med Chem Lett, 2015).

Key:
[1] = Antiproliferative activity against human SKBR3 cells overexpressing HER2 by MTT assay; format: functional, cell-based; conditions: SK-BR-3
[2] = Antiproliferative activity against human BT474 cells overexpressing HER2 by MTT assay; format: functional, cell-based; conditions: BT-474
[3] = Antiproliferative activity against human BT474 cells overexpressing HER2 at 10 uM by MTT assay; format: functional; conditions: BT-474
[4] = molecular target: T1, Epidermal growth factor receptor (Homo sapiens, UniProt P00533); test: Inhibition of human full length HER1 assessed as phosphorylation state at 10 uM by ELISA assay
T1 sequence (P00533 whole entry): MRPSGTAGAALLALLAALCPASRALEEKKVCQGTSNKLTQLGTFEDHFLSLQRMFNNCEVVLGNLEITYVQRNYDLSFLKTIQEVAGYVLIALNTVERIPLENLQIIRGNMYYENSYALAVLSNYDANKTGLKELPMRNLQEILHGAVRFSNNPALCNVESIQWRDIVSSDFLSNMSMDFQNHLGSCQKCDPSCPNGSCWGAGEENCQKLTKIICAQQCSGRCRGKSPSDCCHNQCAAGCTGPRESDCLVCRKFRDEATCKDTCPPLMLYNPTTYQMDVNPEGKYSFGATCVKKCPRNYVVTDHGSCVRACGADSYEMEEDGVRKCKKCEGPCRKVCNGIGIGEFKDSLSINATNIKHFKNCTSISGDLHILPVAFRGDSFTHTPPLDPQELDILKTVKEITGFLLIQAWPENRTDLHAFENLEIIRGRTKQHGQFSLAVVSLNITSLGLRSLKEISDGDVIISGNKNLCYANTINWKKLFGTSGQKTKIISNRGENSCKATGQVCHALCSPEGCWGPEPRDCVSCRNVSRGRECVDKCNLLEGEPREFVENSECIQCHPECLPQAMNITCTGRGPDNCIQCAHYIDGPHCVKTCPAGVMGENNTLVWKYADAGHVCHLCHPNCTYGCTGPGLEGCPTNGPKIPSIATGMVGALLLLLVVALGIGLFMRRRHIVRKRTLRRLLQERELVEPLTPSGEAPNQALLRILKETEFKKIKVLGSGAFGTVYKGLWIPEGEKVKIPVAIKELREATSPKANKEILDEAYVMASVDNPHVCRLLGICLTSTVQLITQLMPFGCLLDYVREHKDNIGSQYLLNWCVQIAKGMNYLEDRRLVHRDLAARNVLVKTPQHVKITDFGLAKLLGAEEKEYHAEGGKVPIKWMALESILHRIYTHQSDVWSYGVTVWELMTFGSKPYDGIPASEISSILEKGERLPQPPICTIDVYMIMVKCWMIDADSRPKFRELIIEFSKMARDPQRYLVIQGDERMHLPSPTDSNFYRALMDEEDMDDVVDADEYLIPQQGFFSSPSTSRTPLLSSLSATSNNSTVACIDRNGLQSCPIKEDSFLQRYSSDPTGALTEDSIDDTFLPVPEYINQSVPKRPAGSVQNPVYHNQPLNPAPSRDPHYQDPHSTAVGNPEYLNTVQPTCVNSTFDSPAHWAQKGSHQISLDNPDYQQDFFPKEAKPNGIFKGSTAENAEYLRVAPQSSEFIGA

[5] = molecular target: T2, Receptor tyrosine-protein kinase erbB-2 (Homo sapiens, UniProt P04626); test: Inhibition of human full length HER2 assessed as phosphorylation state at 10 uM by ELISA assay
T2 sequence (P04626 whole entry): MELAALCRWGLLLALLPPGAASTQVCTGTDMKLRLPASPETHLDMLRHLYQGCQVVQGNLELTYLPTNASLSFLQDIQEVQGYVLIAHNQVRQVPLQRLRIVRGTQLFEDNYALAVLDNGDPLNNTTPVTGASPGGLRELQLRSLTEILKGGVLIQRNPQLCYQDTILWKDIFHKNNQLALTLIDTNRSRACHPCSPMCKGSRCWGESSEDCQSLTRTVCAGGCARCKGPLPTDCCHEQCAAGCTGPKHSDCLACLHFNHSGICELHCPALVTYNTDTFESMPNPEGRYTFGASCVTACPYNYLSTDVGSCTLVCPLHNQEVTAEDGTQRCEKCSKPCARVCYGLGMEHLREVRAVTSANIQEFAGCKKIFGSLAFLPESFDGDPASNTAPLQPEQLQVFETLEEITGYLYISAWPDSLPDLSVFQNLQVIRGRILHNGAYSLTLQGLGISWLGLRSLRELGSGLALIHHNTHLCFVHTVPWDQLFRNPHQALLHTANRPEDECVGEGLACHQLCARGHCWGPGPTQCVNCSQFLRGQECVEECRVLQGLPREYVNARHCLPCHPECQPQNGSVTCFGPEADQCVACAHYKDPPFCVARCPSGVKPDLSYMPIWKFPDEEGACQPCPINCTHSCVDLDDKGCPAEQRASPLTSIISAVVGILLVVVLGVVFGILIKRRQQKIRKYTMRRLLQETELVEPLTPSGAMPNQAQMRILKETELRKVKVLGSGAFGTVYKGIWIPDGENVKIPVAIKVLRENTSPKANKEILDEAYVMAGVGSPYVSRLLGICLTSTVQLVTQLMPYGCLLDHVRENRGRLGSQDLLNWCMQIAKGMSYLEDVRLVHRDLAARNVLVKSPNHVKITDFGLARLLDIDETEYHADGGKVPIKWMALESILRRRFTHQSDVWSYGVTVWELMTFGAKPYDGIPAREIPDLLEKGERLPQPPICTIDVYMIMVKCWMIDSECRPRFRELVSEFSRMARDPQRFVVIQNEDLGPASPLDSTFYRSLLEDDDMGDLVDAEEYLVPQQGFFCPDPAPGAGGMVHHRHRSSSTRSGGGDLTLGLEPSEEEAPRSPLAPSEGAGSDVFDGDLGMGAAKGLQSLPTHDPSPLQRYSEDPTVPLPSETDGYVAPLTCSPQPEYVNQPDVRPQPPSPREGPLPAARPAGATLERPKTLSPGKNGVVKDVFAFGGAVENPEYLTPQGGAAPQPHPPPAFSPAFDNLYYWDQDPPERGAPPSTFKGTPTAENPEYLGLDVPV

[6] = Antiproliferative activity against human SKBR3 cells overexpressing HER2 at 10 uM by MTT assay; format: functional; conditions: SK-BR-3
[7] = molecular target: T1, Epidermal growth factor receptor; test: Inhibition of human full length HER1 assessed as phosphorylation state by ELISA assay
[8] = molecular target: T2, Receptor tyrosine-protein kinase erbB-2; test: Inhibition of human full length HER2 assessed as phosphorylation state by ELISA assay

| SMILES | IC50 [1] | IC50 [2] | inhibition at 10 µM [3] | inhibition [4] | inhibition [5] | other results |
| --- | --- | --- | --- | --- | --- | --- |
| Brc1cccc(CNc2ccc(-c3nc4ccccc4o3)cc2)c1 | 1240 nM | 343 nM | 51.8% | 79.9% | 73.1% | – |
| COc1nc(N/N=C/c2ccc(-c3ccc(Cl)c([N+](=O)[O-])c3)o2)nc(N2CCOCC2)n1 | – | – | 39.8% | – | – | – |
| CN1C(=O)C(O)(CC(=O)c2cccc(-n3cccc3)c2)c2ccccc21 (configuration not stated) | – | – | 7.25% | – | – | – |
| COc1ccccc1OCC(=O)Nc1cccc(-c2nc3ccccc3c(=O)o2)c1 | – | – | 35% | – | – | – |
| O=C(Cc1c[nH]c2ccccc12)NNC(=S)Nc1cccnc1 | – | – | – | – | – | inhibition at 10 µM [6]: 21.2% |
| Nc1ncn(Cc2ccccc2)c2nc(SCCOc3ccccc3F)nc1-2 | 2260 nM | 426 nM | 61.4% | 81.8% | 72.1% | – |
| O=C(COC(=O)c1cc(O)nc2ccccc12)c1ccc2ccccc2c1 | – | – | 17% | – | – | – |
| O=[N+]([O-])c1cc(-c2ccc(/C=N/c3nc4ccccn4c3-c3ccco3)o2)ccc1Cl | 3170 nM | 1100 nM | 77% | 80.5% | 67.1% | – |
| Cc1ccc(C(=O)COc2cccc(-c3cnc4ccccc4n3)c2)cc1 | 3110 nM | 314 nM | 56.2% | 83.9% | 67% | – |
| c1cncc(Nc2nnc(Cc3c[nH]c4ccccc34)o2)c1 | – | – | – | – | – | inhibition at 10 µM [6]: 33.4% |
| Cc1nnc2sc(-c3ccc(NCc4ccc(F)cc4)cc3)nn12 | – | – | 51% | – | – | – |
| O=C(CSc1nnc2ccc(-c3ccccc3)nn12)NC(=O)Nc1ccccc1 | 1640 nM | 802 nM | 52.7% | 76.1% | 75.1% | – |
| Cc1ccn2c(C(=O)N/N=C/c3cn(-c4ccccc4)nc3-c3cccs3)c(C)nc2c1 | – | – | 48.2% | – | – | – |
| c1ccc(-n2nnnc2Oc2cccc(CNCc3ccc4c(c3)OCO4)c2)cc1 | – | – | 27.2% | – | – | – |
| N#Cc1cnn(-c2ccccc2)c1NC(=O)CSc1nnc(-c2ccco2)n1-c1ccc(F)cc1 | – | – | 9.56% | – | – | – |
| Brc1cccnc1Nc1nnc(Cc2c[nH]c3ccccc23)o1 | – | – | – | – | – | inhibition at 10 µM [6]: 37.2% |
| O=C(CSc1nc(-c2cccs2)cc(C(F)(F)F)n1)Nc1ccc2c(c1)OCO2 | – | – | 47.9% | – | – | – |
| Cc1ccc2c(C)nc(Nc3nc(O)cc(CSc4nnnn4-c4ccccc4)n3)nc2c1 | 1030 nM | 755 nM | 72.7% | 83% | 85.8% | IC50 [7]: 3920 nM; IC50 [8]: 6030 nM |
| O=C(Cc1c[nH]c2ccccc12)NNC(=S)Nc1ncccc1Br | – | – | – | – | – | IC50 [7]: 8490 nM; IC50 [8]: 12400 nM; inhibition at 10 µM [6]: 71.5% |
